{"source": "patent US20250302903A1", "about": "“COMPOSITION FOR PREVENTION AND TREATMENT OF MUSCLE DISEASE, CONTAINING MAGNOLIA OFFICINALIS EXTRACT AS ACTIVE INGREDIENT” (TWINPIGBIOLAB INC., priority 2022, published 2025)", "key": {"[1]": {"system": "mouse colon cancer cell line CT26", "experiment": "Anti-tumor activity of cisplatin in the CT26 colon cancer-bearing mouse model", "assay_type": "in vivo", "settings": "cisplatin alone; CT26 s.c. 3×10^5 per mouse", "experimental": "To confirm whether administration of the Magnolia officinalis extract interfered with the anti-tumor activity of cisplatin, a mouse colon cancer cell line CT26 (Korean Cell Line Bank, 80009; Seoul, Korea) was injected subcutaneously at 3×10^5 per mouse to fabricate a colon cancer-bearing mouse model, and then treated with cisplatin or cisplatin+Magnolia officinalis extract (200 mg/kg), and the size (volume) and weight of tumor were measured every 3 days."}, "[2]": {"system": "cisplatin-induced sarcopenia mouse model", "experiment": "Leg weight and tibialis anterior (TA) muscle mass on day 42, cisplatin-induced skeletal muscle wasting", "assay_type": "in vivo, mice (C57BL/6)", "settings": "vs cisplatin group", "experimental": "In order to confirm an effect of a Magnolia officinalis extract on cisplatin-induced skeletal muscle wasting, the leg weight and tibialis anterior (TA) muscle mass of each group were measured on day 42 of the experiment."}, "[3]": {"system": "cells expressing both CD68 and IGF-1", "experiment": "Immunohistochemistry of CD68 and IGF-1 in TA muscle sections", "assay_type": "in vivo, mice (C57BL/6)", "settings": "per image area", "experimental": "It was confirmed whether […], which shifted the polarization of a macrophage phenotype from M2a to M2c (macrophages involved in extracellular matrix remodeling and muscle healing), and the number of macrophages were affected in skeletal muscle by administration of a Magnolia officinalis extract. Specifically, the TA muscle tissue sections of Example 4-3 were incubated overnight with a primary antibody, rat anti-mouse CD68 antibody (1:250; MCA1957GA; Bio-Rad, Contra Costa County, CA, USA) and rabbit anti-mouse IGF-1 antibody (1:500; 40657; Abcam, Cambridge, UK), and then incubated for 30 minutes with a secondary antibody, Alexa Fluor 488-conjugated goat anti-rat immunoglobulin IgG (A11006; Invitrogen, Carls-bad, CA, USA) and Alexa Fluor 594-conjugated goat anti-rabbit IgG (A32740; Invitrogen, Carlsbad, CA, USA). Thereafter, the sections were mounted using mounting media containing 4′,6-diamidino-2-phenylindole (DAPI) (H-1200, Vector, Torrance, CA, USA), and then imaged under a confocalator microscope (FV10C-PSU; Olympus Corporation, Tokyo, Japan). In the captured images, the numbers of IGF-I (red), CD68 (macrophage) (green), and DAPI (blue) positive cells per image area were measured in at least five random fields."}, "[4]": {"system": "cisplatin-induced sarcopenia mouse model", "quoted_text": "Specifically, mice (C57BL/6, 7 to 8 weeks old) (Jackson Laboratories, Raon Bio, Gyeonggi) were randomly caged and raised in a regulated environment with free access to food and water with a 12-hour light/dark cycle, and then on days 1 to 5 and days 26 to 30, cisplatin (Sigma-Aldrich, P4394; St. Louis, MO, USA) (2.5 mg/kg) dissolved at 1 mg/mL in physiological saline was injected intraperitoneally once daily (sarcopenia mouse model), M.C (50, 100 and 200 mg/kg) were administered orally every 3 days (total of 12 times)."}, "[5]": {"system": "cisplatin-induced sarcopenia mouse model", "experiment": "Grip strength (forelimb and all limbs) by digital force gauge", "assay_type": "in vivo, mice (C57BL/6)", "settings": "M.C 100 and 200 mg/kg; magnolol 10 mg/kg i.p.", "experimental": "To determine the effect of the Magnolia officinalis extract on cisplatin-induced grip strength reduction, muscle strength of all limbs and muscle strength of forelimb were measured using a digital force gauge (DS2-5N; IMADA Inc., Northbrook, IL, USA). The muscle strength was measured by pulling the mouse's tail downward 5times and recording the peak tension when the mouse released its foot, and repeated 3 times at 10-minute intervals, and the average of 5 values was used for calculation."}}, "data": [{"smiles": "N.N.[Cl][Pt][Cl]", "note": "[cisplatin]", "values": [{"measurement": "tumor growth (size and weight)", "setting": "[1]", "value": "significantly reduced tumor growth"}]}, {"smiles": "C=CCc1ccc(O)c(-c2cc(CC=C)ccc2O)c1", "note": "[magnolol]", "values": [{"measurement": "TA muscle mass reduction induced by cisplatin", "setting": "[2]", "value": "significantly alleviated"}, {"measurement": "leg weight reduction induced by cisplatin", "setting": "[2]", "value": "significantly alleviated"}, {"measurement": "number of cells expressing both CD68 and IGF-1", "setting": "[3]", "value": "increased"}, {"measurement": "cisplatin-induced rapid weight loss (body weight, A of FIG. 2)", "setting": "[4]; M.C 50, 100 and 200 mg/kg orally every 3 days (12 times), magnolol 10 mg/kg i.p. every 3 days, vs CIS+PBS", "value": "significantly alleviated"}, {"measurement": "changes in weight on the last and first days (B of FIG. 2)", "setting": "[4]; M.C orally or magnolol 10 mg/kg i.p. vs cisplatin group", "value": "significant reduction in weight loss"}, {"measurement": "pulling force power (grip strength) compared to the cisplatin administered group", "setting": "[5]", "value": "significantly increased"}]}]}
